From patent US8101180B2, “Anti-IGF-IR and/or anti-insulin/IGF-I hybrid receptors antibodies and uses thereof” (Pierre Fabre Medicament, priority 2002, dated 2012)
Entries after “also recorded” stand apart in the source; their conditions may differ.

Key:
MCF-7 cells [1] = test: Cell cycle of MCF-7 cells with IGF1; format: cell-based, human; details: MCF-7 cells, 24 hours
Method: The inhibition of the cell growth observed in vitro on the line MCF-7 should be manifested by an effect on the cell cycle. In order to reply to this question, 4·10^5 cells are inoculated into 6-well plates. […] After incubation for 24 hours, the cells are recovered for the study of the cell cycle.

IR = test: Immunoprecipitation of IR from R−/IR-A and R−/IR-B cell lysates; format: binding
From the text: The used cells for this study are listed thereafter: • R+: R− fibroblasts stably transfected with the IGF-I receptor (IGF-IR) cDNA • R−/IR-A: R− fibroblasts stably transfected with the insulin receptor isoform A (IR-A) cDNA • R−/IR-B:R− fibroblasts stably transfected with the insulin receptor isoform B (IR-B) cDNA • R+/IR-A: R− fibroblasts stably co-transfected with the IGF-I and the insulin receptor isoform A cDNA and, therefore, expressing hybrid receptors A (Hybrid-RsA) • R+/IR-B: R− fibroblasts stably co-transfected with the IGF-I and the insulin receptor isoform B cDNA and, therefore, expressing hybrid receptors B (Hybrid-RsB)
For the obtention of cellular lysat, cells were solubilized in RIPA buffer and 4 mg protein used for immunoprecipitation.
Following immunoprecipitation, the pellet was resuspended in 2× sample buffer and subjected to SDS-PAGE (7.5% polyacrylamide).
Filters were blotted as follows: Filters containing R+ lysates (and therefore only IGF-IR) with an anti-IGF-IR β-subunit (Santa Cruz). Filters containing lysates from all the remaining cells with an antibody anti-IR β-subunit (Santa Cruz).

MCF-7 tumor = MCF-7 tumor growth in nude mice (subcutaneous xenograft); format: in vivo; details: for inhibition of MCF-7 tumor growth in vivo, murine versus humanized antibody: 125 μg/dose twice a week i.p. (Example 36)
Method: The in vivo selection was carried out in an established tumor model. In order to do this, nude mice received a subcutaneous implant of slow-release estrogen, indispensable for the taking of the tumor in a murine model. Twenty-four hours after implantation of the estrogens, 5·10^6 MCF-7 cells are grafted onto the right flank of the mouse subcutaneously. Five days after this cell graft, the tumors are measurable and batches of 6 mice are formed at random. The treatment of the mice is carried out twice per week, during 5 to 6 weeks, at the dose of 250 μg/dose/mouse. In the control group, the mice are treated in the same fashion with a murine control isotype. […] Another non exclusive hypothesis could be the recognition by these antibodies of the atypical IGF-IR as described in the paper of Siddle et al., (Siddle et al., 1994, Horn Res. 41(suppl. 2):56-65).
The long-term use of tamoxifen is associated with a significant increase in the risk of endometrial cancer (Fisher et al., J. of National Cancer Institute, 86, 7:527-537, 1994; VIDAL 2000, 1975-1976) and of collateral recurrence of E2-independent cancer of the breast (Li C. I. et al., J. Natl. Cancer Inst., July 4, 93(13):1008-1013, 2001). […] In order to do this, 7·10^6 MCF-7 cells were implanted sc (subcutaneously) in nude mice, 24 hours after implantation in these same mice of a grain of estradiol with prolonged release (0.72 mg/tablet liberated over 60 days), indispensable for the establishment of any E2-dependent human tumor in this animal species. Five days after this implantation, the tumors are measured and groups of 6 mice are formed. […] The tamoxifen is administered daily for 4 weeks except at the weekend. […] A study was previously carried out in order to verify that the solvent alone is without influence on the tumor growth.
To do this, 5·10^6 A549 cells were implanted subcutaneously in nude mice. Five days after this implantation, the tumors were measured and groups of 6 mice were formed. […] In the MCF-7 breast tumor model, a sustained-release oestradiol granule (0.72 mg/tablet released over 60 days) is implanted subcutaneously 24 hours before implantation of the cells. This granule is essential to the establishment of any E2-dependent human tumor in this animal species.

MCF-7 cells [2] = test: IGF1-induced proliferation of MCF-7 cells (3H thymidine incorporation); format: cell-based, human; details: antibody 10 μg/ml; IGF-I 1 to 50 ng/ml
Method: The cell proliferation is evaluated by following the incorporation of ^3H thymidine. The commercial antibody αIR3 is used as a positive control of the experiment.
The cell proliferation is estimated by following on the β counter the incorporation of tritiated thymidine by the cells. The results are expressed as a proliferative index.

Substance | inhibition of IGF1-induced entry into the cell cycle (MCF-7 cells [1]) | immunoprecipitation of IR (IR) | inhibition of MCF-7 tumor growth in vivo, murine versus humanized antibody (MCF-7 tumor) | inhibition of MCF-7 tumor growth in vivo (MCF-7 tumor; 250 μg/dose/mouse twice per week i.p.) | inhibition of IGF1-induced proliferation of MCF-7 cells (MCF-7 cells [2]) | inhibition of MCF-7 tumor growth in vivo, murine versus humanized antibody (MCF-7 tumor; listed as 7H2HM)
7C10: murine monoclonal anti-IGF-IR IgG1 secreted by the hybridoma deposited at the CNCM under the number I-2717 | significant inhibition of the entry into the cycle | Neither 7C10 nor h7C10 appreciably immunoprecipitate IR | significant inhibition of tumor growth | very significant inhibition of the tumor growth; also recorded: significantly inhibiting the growth; also recorded: significantly more efficacious than tamoxifen | significantly inhibits the growth | –
h7C10: humanized 7C10 anti-IGF-IR antibody, isotype IgG1 (humanized 1 written 7H2HM) | significant inhibition of the entry into the cycle | Neither 7C10 nor h7C10 appreciably immunoprecipitate IR | exactly the same intensity as that observed with its murine counterpart | – | perfectly preserved their properties of inhibiting the IGF1-induced growth | perfectly comparable with the murine antibody 7C10
